# Measurements as given in patent publication US4605744A, “Imidazole derivatives” (Hoffmann-La Roche Inc., priority 1985, dated 1986).
# Like-named read-outs stand apart in the source and are kept apart here.
# Experiments:
# K. pneumoniae HE7 = experiment: In vivo antibacterial activity (PD50); conditions: Klebsiella pneumoniae, HE7, sc, 2 treatments
# Method: (§2) The results in these Tables and the PD50 's were determined by the procedure set forth on page 160 in Beskid et al., Antimicrobial Agents and Chemotherapy, Vol. 20, No. 2 pp. 159-167 (Aug. 1981) for "in vivo studies".
# S. pneumoniae 6302 = experiment: In vivo antibacterial activity (PD50); conditions: Streptococcus pneumoniae, 6302, sc
# Method: as §2
# P. aeruginosa 6720 = experiment: In vivo antibacterial activity (PD50); conditions: Pseudomonas aeruginosa, 6720, sc, 2 treatments
# Method: as §2
# P. aeruginosa 5700 = experiment: In vitro antibacterial activity (MIC); format: cell-based
# Method in brief: (§1)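 Broth microdilution in Mueller-Hinton broth, drug range 128 to 0.008 μg/ml; each well inoculated with 1.5 μl of a 10^-2 dilution of overnight culture. Sealed trays incubated overnight at 37° C. MIC is the lowest concentration showing no visible growth.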
# P. rettgeri ATCC 9250 = experiment: In vitro antibacterial activity (MIC); format: cell-based; conditions: Providencia rettgeri, ATCC9250
# Method in brief: as §1
# P. aeruginosa Stone 130 = experiment: In vitro antibacterial activity (MIC); format: cell-based
# Method in brief: as §1
# S. marcescens S2 = experiment: In vitro antibacterial activity (MIC); format: cell-based; conditions: Serratia marcescens
# Method in brief: as §1
# S. marcescens SM [1] = experiment: In vitro antibacterial activity (MIC); format: cell-based; conditions: Serratia marcescens
# Method in brief: as §1
# P. mirabilis 190 = experiment: In vitro antibacterial activity (MIC); format: cell-based; conditions: Proteus mirabilis, 190
# Method in brief: as §1
# E. coli R-563 = experiment: In vitro antibacterial activity (MIC); format: cell-based; conditions: Escherichia coli, R563
# Method in brief: as §1
# S. marcescens S5 = experiment: In vitro antibacterial activity (MIC); format: cell-based
# Method in brief: as §1
# E. aerogenes 8 [2] = experiment: In vitro antibacterial activity (MIC); format: cell-based
# Method in brief: as §1
# P. mirabilis 90 = experiment: In vitro antibacterial activity (MIC); format: cell-based
# Method in brief: as §1
# K. pneumoniae 503-964 = experiment: In vitro antibacterial activity (MIC); format: cell-based
# Method in brief: as §1
# P. aeruginosa 8780 = experiment: In vitro antibacterial activity (MIC); format: cell-based; conditions: Pseudomonas aeruginosa, 8780
# Method in brief: as §1
# S. faecalis C1 [3] = experiment: In vitro antibacterial activity (MIC); format: cell-based
# Method in brief: as §1
# P. aeruginosa 503-820 = experiment: In vitro antibacterial activity (MIC); format: cell-based
# Method in brief: as §1
# S. aureus 1059B = experiment: In vitro antibacterial activity (MIC); format: cell-based; conditions: Staphylococcus aureus
# Method in brief: as §1
# P. aeruginosa 6719 = experiment: In vivo antibacterial activity (PD50); conditions: Pseudomonas aeruginosa, 6719, sc, challenge 2290 LD50s, 2 treatments, Table 11
# Method: as §2
# S. marcescens SM [4] = experiment: In vivo antibacterial activity (PD50); conditions: sc
# Method: as §2
# E. cloacae 6951 = experiment: In vivo antibacterial activity (PD50); conditions: Enterobacter cloacae, 6951, sc, 2 treatments
# Method: as §2
# P. aeruginosa 6799 = experiment: In vivo antibacterial activity (PD50); conditions: Pseudomonas aeruginosa, 6799, sc, sc, 2 treatments, read-out: PD50
# Method: as §2
# S. faecalis C1 [5] = experiment: In vivo antibacterial activity (PD50); conditions: sc
# Method: as §2
# S. aureus Smith = experiment: In vivo antibacterial activity (PD50); conditions: Staphylococcus aureus, sc
# P. aeruginosa 6148B = experiment: In vivo antibacterial activity (PD50); conditions: Pseudomonas aeruginosa, sc, challenge 32 LD50s, 2 treatments, Table 11
# Method: as §2
# E. aerogenes 8 [6] = experiment: In vivo antibacterial activity (PD50)
# Method: as §2
# S. pyogenes 4 = experiment: In vivo antibacterial activity (PD50); conditions: Streptococcus pyogenes, 4, sc, sc, read-out: PD50
# E. coli 257 = experiment: In vivo antibacterial activity (PD50); conditions: Escherichia coli, 257, sc
# P. aeruginosa 8710 = experiment: In vivo antibacterial activity (PD50); conditions: Pseudomonas aeruginosa, 8710, sc, 2 treatments
# Method: as §2
# P. aeruginosa 503-56 = experiment: In vivo antibacterial activity (PD50); conditions: Pseudomonas aeruginosa, 50356, sc
# [7] = challenge 100 LD50s, 2 treatments, Table 10
smiles,measurement,setting,value
"CC1(C)S[C@@H]2[C@H](/N=C/N3CCCCCC3)C(=O)N2[C@H]1C(=O)O [Amdinocillin, amdinocillin, reference compound]",ED50,"K. pneumoniae HE7; challenge 750 LD50s, Table 10",> 250 mg/kg
same,ED50,"K. pneumoniae HE7; challenge 1000 LD50s, Table 11",> 250 mg/kg
same,ED50,S. pneumoniae 6302; Table 9,204 mg/kg
same,ED50,"S. pneumoniae 6302; challenge 1000 LD50s, 1 treatment, Table 11",> 250 mg/kg
same,ED50,"P. aeruginosa 6720; challenge 35 LD50s, Table 11",> 250 mg/kg
same,ED50,"P. aeruginosa 6720; challenge 3511 LD50s, Table 10",> 250 mg/kg
same,MIC,P. aeruginosa 5700; P. aeruginosa 5700,> 128 µg/mL
same,MIC,"P. aeruginosa 5700; Pseudomonas aeruginosa, 5700, P. aeruginosa 5700",128 µg/mL
same,MIC,P. rettgeri ATCC 9250,0.125 µg/mL
same,MIC,P. aeruginosa Stone 130,128 µg/mL
same,MIC,"P. aeruginosa Stone 130; Pseudomonas aeruginosa, STONE130",> 128 µg/mL
same,MIC,"S. marcescens S2; S2, S. marcescens S2",0.125 µg/mL
same,MIC,"S. marcescens S2; S. marcescens S2, read-out: MIC",0.25 µg/mL
same,MIC,S. marcescens SM [1],0.125 µg/mL
same,MIC,S. marcescens SM [1]; read-out: MIC,0.062 µg/mL
same,MIC,P. mirabilis 190,0.125 µg/mL
same,MIC,E. coli R-563,0.125 µg/mL
same,MIC,S. marcescens S5; S. marcescens S5,0.5 µg/mL
same,MIC,"S. marcescens S5; Serratia marcescens, S5, S. marcescens S5, read-out: MIC",1 µg/mL
same,MIC,"E. aerogenes 8 [2]; Klebsiella aerogenes, 8, E. aerogenes 8",128 µg/mL
same,MIC,"E. aerogenes 8 [2]; Klebsiella aerogenes, E. aerogenes 8, read-out: MIC",0.25 µg/mL
same,MIC,P. mirabilis 90; P. mirabilis 90,0.5 µg/mL
same,MIC,"P. mirabilis 90; Proteus mirabilis, 90, P. mirabilis 90, read-out: MIC",0.25 µg/mL
same,MIC,"K. pneumoniae 503-964; Klebsiella pneumoniae, 503964, K. pneumoniae 503-964",0.125 µg/mL
same,MIC,"K. pneumoniae 503-964; Klebsiella pneumoniae, 503964, K. pneumoniae 503-964, read-out: MIC",0.062 µg/mL
same,MIC,P. aeruginosa 8780,> 128 µg/mL
same,MIC,"S. faecalis C1 [3]; Enterococcus faecalis, C1, S. faecalis C1",> 128 µg/mL
same,MIC,S. faecalis C1 [3]; S. faecalis C1,128 µg/mL
same,MIC,P. aeruginosa 503-820; P. aeruginosa 503-820,128 µg/mL
same,MIC,"P. aeruginosa 503-820; Pseudomonas aeruginosa, 503820, P. aeruginosa 503-820",> 128 µg/mL
same,MIC,"P. aeruginosa 503-820; Pseudomonas aeruginosa, 503820, P. aeruginosa 503-820, read-out: MIC",64 µg/mL
same,MIC,S. aureus 1059B; 1059B,128 µg/mL
same,MIC,S. aureus 1059B; read-out: MIC,64 µg/mL
same,ED50,P. aeruginosa 6719,< 20 mg/kg
same,ED50,"S. marcescens SM [4]; Serratia marcescens, Table 9",> 250 mg/kg
same,PD50,"S. marcescens SM [4]; challenge 489 LD50s, 2 treatments, Table 11",> 250 mg/kg
same,ED50,"E. cloacae 6951; challenge 562 LD50s, Table 10",18 mg/kg
same,ED50,"E. cloacae 6951; challenge 3162 LD50s, Table 11",2.5 mg/kg
same,ED50,"P. aeruginosa 6799; challenge 48 LD50s, Table 10",117 mg/kg
same,ED50,"P. aeruginosa 6799; challenge 71 LD50s, Table 11",> 250 mg/kg
same,ED50,"S. faecalis C1 [5]; Enterococcus faecalis, C1, Table 9",> 250 mg/kg
same,PD50,"S. faecalis C1 [5]; challenge 10 LD50s, 1 treatment, Table 11",> 250 mg/kg
same,ED50,S. aureus Smith; Table 9,69 mg/kg
same,ED50,"S. aureus Smith; challenge 48 LD50s, 2 treatments, Table 10",22 mg/kg
same,ED50,"S. aureus Smith; challenge 70 LD50s, 2 treatments, Table 11",13 mg/kg
same,ED50,S. aureus Smith; [7],12 mg/kg
same,ED50,P. aeruginosa 6148B,> 250 mg/kg
same,ED50,"E. aerogenes 8 [6]; Klebsiella aerogenes, 8, sc, read-out: PD50, sc, challenge 10 LD50s, 2 treatments, Table 11",167 mg/kg
same,ED50,"E. aerogenes 8 [6]; Klebsiella aerogenes, 8, sc, Table 9, read-out: PD50",> 250 mg/kg
same,ED50,S. pyogenes 4; Table 9,60 mg/kg
same,ED50,"S. pyogenes 4; challenge 3.3 LD50s, 2 treatments, Table 11",11 mg/kg
same,ED50,S. pyogenes 4; [7],8.1 mg/kg
same,ED50,E. coli 257; Table 9,< 0.025 mg/kg
same,ED50,"E. coli 257; challenge >10^4 LD50s, 1 treatment, Table 10",< 1 mg/kg
same,ED50,"E. coli 257; challenge >10^4 LD50s, 1 treatment, Table 11",< 2 mg/kg
same,ED50,"P. aeruginosa 8710; challenge 10 LD50s, Table 10, read-out: PD50",> 250 mg/kg
same,ED50,"P. aeruginosa 8710; challenge 562 LD50s, Table 10, read-out: PD50",> 250 mg/kg
same,ED50,"P. aeruginosa 8710; challenge >10^4 LD50s, Table 11, read-out: PD50",> 250 mg/kg
same,ED50,P. aeruginosa 503-56; Table 9,> 250 mg/kg
same,ED50,"P. aeruginosa 503-56; challenge 4.7 LD50s, 2 treatments, Table 10",> 250 mg/kg
same,ED50,"P. aeruginosa 503-56; challenge 50 LD50s, 2 treatments, Table 11",> 250 mg/kg
same,ED50,P. aeruginosa 503-56; [7],> 250 mg/kg
